Measurements reported in article PMC5635026, “Homo-PROTACs: bivalent small-molecule dimerizers of the VHL E3 ubiquitin ligase to induce self-degradation” (Nature Communications, 2017).
Like-named read-outs stand apart in the source and are kept apart here.

Tests used:
pVHL30 [1] = target: T1, pVHL30 (Homo sapiens, UniProt P40337); assay: Immunoblot of pVHL30 protein level in HeLa cells after compound treatment; type: cell-based; set-up: endogenous in cells; host or cells: HeLa; details: 10 h; for remaining activity at 1 µM: DMSO = 100, Fig. 4a; for remaining activity at 1 µM / remaining pVHL30 protein level at 1 µM: read-out: pVHL30 band quantification normalized to 0.1% DMSO; for remaining activity at 1 µM / depletion of target protein (pVHL30 / VHL): 1 µM
Method: (§1) Cell culture. Human cell lines HeLa, U2OS and HEK 293, purchased from ATCC, were propagated in DMEM supplemented with 10% fetal bovine serum (FBS), L- glutamine, 100 μg ml^−1 of penicillin/streptomycin at 37 °C and 5% CO2. Cells were maintained for no more than 30 passages. All cell lines were routinely tested for mycoplasma contamination using MycoAlert kit from Lonza. For compound treatment experiments, cells were transferred in six-well plates with either 3 × 10^5 or 5 × 10^5 cells per well in 2 ml of media. At 80% confluence, cells were treated with compounds at the desired concentration, reaching final DMSO concentration of 0.1% v/v. Cells were incubated at 37 °C and 5% CO2 for the desired time before harvesting.
(§2) Immunoblotting. Cells were lysed in lysis buffer (20 mM Tris pH 8, 150 mM NaCl, 1% Triton × 100) and a protease inhibitor cocktail (Roche) per 10 ml buffer. For protein extracts, the dishes were placed on ice. The media was aspirated and the tissue layer washed twice with ice-cold phosphate buffer saline (PBS). Lysis buffer (120 μl) was added and the cells detached from the surface with a cell scraper. After removal of the insoluble fraction by centrifugation, the protein concentration of the supernatant was determined by Pierce™ Coomassie (Bradford) Protein Assay Kit. Protein extracts were fractionated by SDS-PAGE on 4–12% Tris-Acetate NuPage® Novex® (Life Technologies) polyacrylamide gels and transferred to a nitrocellulose membrane using wet transfer. The membrane was then blocked with 5 % w/v Bovine serum albumin (BSA) in Tris-buffered saline (TBS) with 0.1% w/v Tween-20. For detecting proteins the following primary antibodies in the given concentrations were used: anti-β-Actin (Cell Signaling Technology, 4970S, 13E5) 1:2000, anti-VHL (Cell Signaling Technology, #68547) 1:1000, anti-Hif-1α (BD Biosciences, 610959, clone 54) 1:1,000, anti-hydroxy-HIF-1α (Hyp564) (Cell Signaling Techonology; #3434) 1:1,000, anti-PHD2 (Bethyl Laboratories; A300-322A) 1:1,000, anti-PHD3 (Bethyl Laboratories; A300-327A) 1:1000, anti-CRBN (Proteintech; 11435-1-AP) 1:1,000. Following incubation with a horseradish peroxidase-conjugated secondary antibody (Cell Signaling Technology), the signal was developed using enhanced chemiluminescence (ECL) Western Blotting Detection Kit (Amersham) on Amersham Hyperfilm ECL film (Amersham). Band quantification was performed using ImageJ software and reported as relative amount as ratio of the each protein band relative to the lane’s loading control. The values obtained were then normalized to 0.1% DMSO vehicle control. See Supplementary Fig. 12 for full-scanned images of western-blots shown in the main text figures.
Target sequence in this assay (P40337 whole entry): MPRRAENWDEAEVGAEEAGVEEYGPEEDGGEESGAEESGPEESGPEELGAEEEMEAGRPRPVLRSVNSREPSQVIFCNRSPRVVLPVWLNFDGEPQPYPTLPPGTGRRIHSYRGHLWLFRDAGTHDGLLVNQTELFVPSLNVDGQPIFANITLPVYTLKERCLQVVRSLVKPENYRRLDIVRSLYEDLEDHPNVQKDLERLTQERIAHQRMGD

pVHL19 [2] = target: T2, pVHL19 (Homo sapiens, UniProt P40337); assay: Immunoblot of pVHL19 protein level in HeLa cells after compound treatment; type: cell-based; set-up: endogenous in cells; host or cells: HeLa; details: 10 h, read-out: pVHL19 band quantification normalized to 0.1% DMSO
Method: as §1, §2
Target sequence in this assay (P40337 54-213): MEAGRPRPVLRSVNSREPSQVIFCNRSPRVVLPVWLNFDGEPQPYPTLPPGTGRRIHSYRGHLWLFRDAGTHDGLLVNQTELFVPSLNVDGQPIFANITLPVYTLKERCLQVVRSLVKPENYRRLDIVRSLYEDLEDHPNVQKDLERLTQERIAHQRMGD
Target sequence in this assay (Q15369 whole entry partner): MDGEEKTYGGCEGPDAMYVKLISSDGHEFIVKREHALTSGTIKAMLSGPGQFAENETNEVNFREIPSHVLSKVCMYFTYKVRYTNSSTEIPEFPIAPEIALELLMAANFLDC
Target sequence in this assay (Q15370 whole entry partner): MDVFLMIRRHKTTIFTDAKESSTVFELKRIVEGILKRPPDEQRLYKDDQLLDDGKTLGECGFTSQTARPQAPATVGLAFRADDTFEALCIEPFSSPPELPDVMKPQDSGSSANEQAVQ

pVHL19 [3] = target: T2, pVHL19; assay: Isothermal titration calorimetry (ITC) against VCB complex with short VHL isoform (V19CB); type: binding; set-up: made in house; details: ITC
Method: (§3) Protein expression and purification. Human proteins VHL (UniProt accession number: P40337), ElonginC (Q15369), and ElonginB (Q15370) were used for all protein expression. The short-isoform-containing VCB complex (V19CB) was expressed, purified and stored as described previously. For expression of the long-isoform-containing VCB complex (V30CB), N-terminally His6-tagged VHL (1–213), ElonginC (17–112) and ElonginB (1–104) were co-expressed in Escherichia coli BL21(DE3) at 20 °C for 18 h using 0.5 mM isopropyl β-D-1-thiogalactopyranoside (IPTG). E. coli cells were resuspended in binding buffer (50 mM HEPES, pH 8.0, 500 mM NaCl, 10 mM imidazole and 5 mM β-mercaptoethanol), lysed using a pressure cell homogenizer (Stansted Fluid Power), and lysate clarified by centrifugation. The supernatant was loaded onto a HisTrap FF affinity column (GE Healthcare) equilibrated with binding buffer, and bound protein was eluted using an imidazole gradient. The His6 tag was removed using thrombin protease (Sigma), and the untagged complex was dialyzed into binding buffer. V30CB was then loaded onto the HisTrap FF column a second time, allowing impurities to bind as the complex eluted without binding. The flow-through was dialyzed using a low-salt buffer (20 mM HEPES, pH 8.0, 25 mM NaCl and 1 mM DTT) and then loaded onto a Resource Q anion exchange column (GE Healthcare); bound protein was eluted across a linear NaCl gradient. V30CB was then additionally purified by size-exclusion chromatography using a Superdex-75 16/600 column (GE Healthcare) equilibrated with 20 mM HEPES, pH 7.5, 100 mM sodium chloride and 1 mM TCEP. All chromatography purification steps were performed using Äkta FPLC purification systems (GE Healthcare).
(§4) Isothermal titration calorimetry (ITC). Titrations were performed on an ITC200 micro-calorimeter (GE Healthcare). […] The final DMSO concentration was 0.15% v/v. VCB protein experiments were carried out in a buffer containing 20 mM Bis-tris propane, 150 mM NaCl, 1 mM TCEP, 0.15% v/v DMSO, pH 7.4. The titrations consisted of 19 injections of 2 µL compounds solution (150 µM, in the syringe) at a rate of 0.5 µl s^−1 at 120 s time intervals into the VCB protein solution (20 µM, in the cell). An initial injection of compound solution (0.4 µL) was made and discarded during data analysis. All experiments were performed at 25 °C, whilst stirring the syringe at 600 rpm. The data were fitted to a single binding site model to obtain the stoichiometry n, the dissociation constant K d and the enthalpy of binding ΔH using the Microcal LLC ITC200 Origin software provided by the manufacturer.
Target sequence in this assay (P40337 54-213): as the sequence (P40337 54-213) above
Target sequence in this assay (Q15369 17-112 partner limits assumed): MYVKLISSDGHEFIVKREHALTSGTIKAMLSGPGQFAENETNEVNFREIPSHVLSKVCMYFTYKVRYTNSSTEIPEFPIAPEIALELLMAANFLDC
Target sequence in this assay (Q15370 1-104 partner limits assumed): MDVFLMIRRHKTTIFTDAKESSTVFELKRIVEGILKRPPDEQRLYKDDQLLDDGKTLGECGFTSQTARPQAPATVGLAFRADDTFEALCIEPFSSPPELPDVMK

V19CB = target: T3, V19CB (Homo sapiens, UniProt P40337); assay: Size-exclusion chromatography (SEC) of complex formation with V19CB; type: binding; details: VCB 50 µM, compound 30 µM
T3 construct: made in house
Method: as §3
Size-exclusion chromatography (SEC). SEC experiments were carried out in a ÄKTA pure system (GE Healthcare) at room temperature. The oligomeric state of the VCB complex in solution was analyzed by gel filtration in a buffer containing 20 mM Bis-Tris (pH 7), 150 mM NaCl and 1 mM 1,4-dithiothreitol (DTT) using a Superdex 200 Increase 10/300 GL column (GE Healthcare) calibrated with globular proteins of known molecular weight (GE Healthcare, 28-4038-41/42). […] Sample volume for each injection was 200 µl, and the flow rate was 0.5 ml min^−1. Peak elution was monitored using ultraviolet absorbance at 280 nm.

pVHL30 [4] = target: T1, pVHL30; assay: Isothermal titration calorimetry (ITC) against VCB complex with long VHL isoform (V30CB); type: binding; set-up: N-terminally His6-tagged VHL (1–213), ElonginC (17–112) and ElonginB (1–104) were co-expressed; His6 (N, cleaved yes); made in house; host or cells: Escherichia coli BL21(DE3); details: 25 °C
Method: as §3, §4
Target sequence in this assay (P40337 whole entry): as the sequence (P40337 whole entry) above
Target sequence in this assay (Q15369 17-112 partner limits assumed): as the sequence (Q15369 17-112 partner limits assumed) above
Target sequence in this assay (Q15370 1-104 partner limits assumed): as the sequence (Q15370 1-104 partner limits assumed) above

T3 sequence (P40337 54-213): as the sequence (P40337 54-213) above
T3 sequence (Q15369 17-112 partner limits assumed): as the sequence (Q15369 17-112 partner limits assumed) above
T3 sequence (Q15370 1-104 partner limits assumed): as the sequence (Q15370 1-104 partner limits assumed) above

| Structure (SMILES) | remaining activity at 1 µM (pVHL30 [1]) [%] | remaining activity at 1 µM (pVHL19 [2]; 1 µM, DMSO = 100, Fig. 4a) [%] | shift of VCB peak / ternary complex formation in SEC (V19CB) | depletion of target protein (pVHL30 / VHL) (pVHL30 [1]) | remaining pVHL30 protein level at 1 µM (pVHL30 [1]) [%] | remaining activity at 1 µM (pVHL19 [2]) [%] | other results |
| --- | --- | --- | --- | --- | --- | --- | --- |
| CC(=O)N[C@H](C(=O)N1C[C@H](O)C[C@H]1C(=O)NCc1ccc(-c2scnc2C)cc1OCCOCCOCCOCCOCCOCC(=O)N[C@H](C(=O)N1C[C@H](O)C[C@H]1C(=O)NCc1ccc(-c2scnc2C)cc1)C(C)(C)C)C(C)(C)C [CMP112] | 110 | 89 |  |  |  |  |  |
| Cc1ncsc1-c1ccc(CNC(=O)[C@@H]2C[C@@H](O)CN2C(=O)[C@@H](NC(=O)COCCOCCOCCOCCOCCOc2cc(-c3scnc3C)ccc2CNC(=O)[C@@H]2C[C@@H](O)CN2C(=O)[C@@H](NC(=O)C2(C#N)CC2)C(C)(C)C)C(C)(C)C)cc1 [CMP113] |  |  |  |  | 121 | 111 |  |
| CC(=O)N[C@H](C(=O)N1C[C@H](O)C[C@H]1C(=O)NCc1ccc(-c2scnc2C)cc1OCCOCCOCCOCCOCCOc1cc(-c2scnc2C)ccc1CNC(=O)[C@@H]1C[C@@H](O)CN1C(=O)[C@@H](NC(C)=O)C(C)(C)C)C(C)(C)C [CMP106] |  |  |  |  | 114 | 93 |  |

Second part, led by results:

| remaining activity at 1 µM (pVHL30 [1]) [%] | remaining activity at 1 µM (pVHL19 [2]; 1 µM, DMSO = 100, Fig. 4a) [%] | shift of VCB peak / ternary complex formation in SEC (V19CB) | depletion of target protein (pVHL30 / VHL) (pVHL30 [1]) | Structure (SMILES) | remaining pVHL30 protein level at 1 µM (pVHL30 [1]) [%] | remaining activity at 1 µM (pVHL19 [2]) [%] | other results |
| --- | --- | --- | --- | --- | --- | --- | --- |
| 108 | 104 | No shift | unable to induce degradation of VHL | Cc1ncsc1-c1ccc(CNC(=O)[C@@H]2C[C@H](O)CN2C(=O)[C@@H](NC(=O)COCCOCCOCCOCCOCCOCC(=O)N[C@H](C(=O)N2C[C@@H](O)C[C@H]2C(=O)NCc2ccc(-c3scnc3C)cc2)C(C)(C)C)C(C)(C)C)cc1 [CMP98, N ^1 ,N ^20-bis((S)-1-((2S,4S)-4-hydroxy-2-((4-(4-methylthiazol-5-yl)benzyl)carbamoyl)pyrrolidin-1-yl)-3,3-dimethyl-1-oxobutan-2-yl)-3,6,9,12,15,18-hexaoxaicosanediamide] |  |  | binding to VCB by ITC (pVHL19 [3]; qualitative): binding was not detected |
| 126 | 97 |  |  | Cc1ncsc1-c1ccc(CNC(=O)[C@@H]2C[C@@H](O)CN2C(=O)[C@@H](NC(=O)C2(C#N)CC2)C(C)(C)C)c(OCCOCCOCCOCCOCCOc2cc(-c3scnc3C)ccc2CNC(=O)[C@@H]2C[C@@H](O)CN2C(=O)[C@@H](NC(=O)C2(C#N)CC2)C(C)(C)C)c1 [CMP108] |  |  |  |
| 62 | 104 | No shift | unable to induce degradation of VHL | Cc1ncsc1-c1ccc(CNC(=O)[C@H]2C[C@@H](O)CN2C(=O)[C@H](NC(=O)COCCOCCOCCOCCOCC(=O)N[C@H](C(=O)N2C[C@H](O)C[C@H]2C(=O)NCc2ccc(-c3scnc3C)cc2)C(C)(C)C)C(C)(C)C)cc1 [CMP99, N ^1-((R)-1-((2R,4R)-4-hydroxy-2-((4-(4-methylthiazol-5-yl)benzyl)carbamoyl)pyrrolidin-1-yl)-3,3-dimethyl-1-oxobutan-2-yl)-N ^17-((S)-1-((2S,4R)-4-hydroxy-2-((4-(4-methylthiazol-5-yl)benzyl)carbamoyl)pyrrolidin-1-yl)-3,3-dimethyl-1-oxobutan-2-yl)-3,6,9,12,15-pentaoxaheptadecanediamide] |  |  | ΔG (pVHL30 [4]; pVHL30): –9.51 ± 0.05 kcal mol^−1; ΔH (pVHL30 [4]; pVHL30): –5.19 ± 0.03 kcal mol^−1; −TΔS (pVHL30 [4]; pVHL30): –4.3 ± 0.1 kcal mol^−1; Kd (pVHL30 [4]; pVHL30 (V30CB)): 106 ± 10 nM; n (pVHL30 [4]; stoichiometry of binding, pVHL30 (V30CB)): 1.050 ± 0.004; ΔG (pVHL19 [3]; 25 °C, pVHL19): –9.33 ± 0.06 kcal mol^−1; ΔH (pVHL19 [3]; 25 °C, pVHL19): –6.23 ± 0.05 kcal mol^−1; −TΔS (pVHL19 [3]; 25 °C, pVHL19): –3.1 ± 0.7 kcal mol^−1; Kd (pVHL19 [3]; 25 °C, pVHL19 (V19CB)): 146 ± 2 nM; n (pVHL19 [3]; 25 °C, stoichiometry of binding, pVHL19 (V19CB)): 0.964 ± 0.005; elution volume of small peak in SEC (V19CB): 13.5 mL |
